This is an account of results in patent US20090124607A1, “Novel Bicyclic Sulfonamides for Use as Glucocorticoid Receptor Modulators in the Treatment of Inflammatory Diseases” (priority 2005, published 2009).

SMILES strings stand for the structures.

This experiment deals with T1, recombinant human GR (Homo sapiens, UniProt P04150).
T1 construct: purchased Panvera/Invitrogen P2812 (kit P2893)
T1 sequence (P04150 1-777): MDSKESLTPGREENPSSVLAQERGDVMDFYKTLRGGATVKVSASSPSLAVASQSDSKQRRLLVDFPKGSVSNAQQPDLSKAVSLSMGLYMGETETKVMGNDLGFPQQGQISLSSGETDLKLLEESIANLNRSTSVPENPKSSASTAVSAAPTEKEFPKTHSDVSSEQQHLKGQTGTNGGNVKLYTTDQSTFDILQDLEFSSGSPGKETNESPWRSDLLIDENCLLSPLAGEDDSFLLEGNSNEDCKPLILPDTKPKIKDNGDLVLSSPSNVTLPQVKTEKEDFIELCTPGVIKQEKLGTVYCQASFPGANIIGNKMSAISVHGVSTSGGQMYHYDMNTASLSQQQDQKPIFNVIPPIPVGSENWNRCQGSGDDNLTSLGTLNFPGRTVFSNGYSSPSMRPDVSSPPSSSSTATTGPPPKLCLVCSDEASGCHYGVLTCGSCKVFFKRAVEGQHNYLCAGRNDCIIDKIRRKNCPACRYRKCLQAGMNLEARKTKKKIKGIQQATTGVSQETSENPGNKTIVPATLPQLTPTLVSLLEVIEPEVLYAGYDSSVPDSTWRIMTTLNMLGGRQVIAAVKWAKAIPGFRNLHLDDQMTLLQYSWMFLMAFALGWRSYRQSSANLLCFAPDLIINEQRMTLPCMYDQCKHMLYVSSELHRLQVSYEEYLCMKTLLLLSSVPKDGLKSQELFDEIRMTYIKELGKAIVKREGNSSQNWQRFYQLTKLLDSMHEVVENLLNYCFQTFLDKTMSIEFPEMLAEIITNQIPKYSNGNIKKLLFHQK
Nature of the experiment: Human Glucocorticoid Receptor (GR) Assay, fluorescence polarization (GRhuFL_FP_v2, GR-binders). Type of experiment: binding. On the procedure: Human Glucocorticoid Receptor (GR) Assay
The assay is based on a commercial kit from Panvera/Invitrogen (Part number P2893). The assay technology is fluorescence polarization. […] The GR and Stabilizing Peptide reagents are stored at −70° C. while the GS Red is stored at −20° C. Also included in the kit are 1M DTT (Panvera, Part number P2325, stored at −20° C.) and GR Screening buffer 10× (Panvera, Part number P2814, stored at −70° C. initially but once thawed stored at room temperature). Avoid repeated freeze/thaws for all reagents. The GR Screening buffer 10× comprises 100 mM potassium phosphate, 200 mM sodium molybdate, 1 mM EDTA and 20% DMSO.
0% control was 100% DMSO and 100% control was 10 μM Dexamethasone. Background solution (8 μL; assay buffer 10×, Stabilizing Peptide, DTT and ice cold MQ water) was added to the background wells. GS Red solution (7 μL; assay buffer 10×, Stabilizing Peptide, DTT, GS Red and ice cold water) was added to all wells except background wells. GR solution (7 μL; assay buffer 10×, Stabilizing Peptide, DTT, GR and ice cold water) was added to all wells. The plate was sealed and incubated in a dark at room temperature for 2 hours.
Background: In fluorescence polarisation assays a small probe gives low polarisation when free and higher when bound to something large.
Consider `Cc1n[nH]c(C)c1S(=O)(=O)N[C@@H](C)COc1cccc2c1cnn2-c1cccnc1` [Example 42, 3,5-Dimethyl-N-{(1S)-1-methyl-2-[(1-pyridin-3-yl-1H-indazol-4-yl)oxy]ethyl}-1H-pyrazole-4-sulfonamide], for which the IC50 was determined as 4000 nM.

Take `Cc1nn(C(C)(C)C)c(C)c1S(=O)(=O)N[C@@H](C)COc1cccc2c1cnn2-c1ccc(F)cc1` [Example 43, 1-tert-Butyl-N-((1S)-2-[{1-(4-fluorophenyl)-1H-indazol-4-yl]oxy}-1-methylethyl)-3,5-dimethyl-1H-pyrazole-4-sulfonamide]: the IC50 stood at 13 nM.

As for `Cc1nn(C(C)(C)C)c(C)c1S(=O)(=O)N[C@@H](C)COc1cccc2c1cnn2-c1cccnc1` [Example 44, 1-tert-Butyl-3,5-dimethyl-N-{(1S)-1-methyl-2-[(1-pyridin-3-yl-1H-indazol-4-yl)oxy]ethyl}-1H-pyrazole-4-sulfonamide], the IC50 turned out to be 80 nM.

Take `Cc1nn([C@@H]2CCOC2)c(C)c1S(=O)(=O)N[C@@H](C)COc1cccc2c1cnn2-c1ccc(F)cc1` [Example 45, N-((1S)-2-{[1-(4-Fluorophenyl)-1H-indazol-4-yl]oxy}-1-methylethyl)-3,5-dimethyl-1-[(3R)-tetrahydrofuran-3-yl]-1H-pyrazole-4-sulfonamide]: the IC50 worked out at 18 nM.

As to `CCC(CC)n1nc(C)c(S(=O)(=O)N[C@@H](C)COc2cccc3c2cnn3-c2ccc(F)cc2)c1C` [Example 46, 1-(1-Ethylpropyl)-N-((1S)-2-{[1-(4-fluorophenyl)-1H-indazol-4-yl]oxy}-1-methylethyl)-3,5-dimethyl-1H-pyrazole-4-sulfonamide], the IC50 was 18 nM.

Turning to `Cc1nn([C@H]2CCOC2)c(C)c1S(=O)(=O)N[C@@H](C)COc1cccc2c1cnn2-c1ccc(F)cc1` [Example 47, N-((1S)-2-{[1-(4-Fluorophenyl)-1H-indazol-4-yl]oxy}-1-methylethyl)-3,5-dimethyl-1-[(3S)-tetrahydrofuran-3-yl]-1H-pyrazole-4-sulfonamide], the IC50 was found to be 36 nM.

Regarding `Cc1nn(C2CCCC2)c(C)c1S(=O)(=O)N[C@@H](C)COc1cccc2c1cnn2-c1ccc(F)cc1` [Example 48, 1-Cyclopentyl-N-((1S)-2-{[1-(4-fluorophenyl)-1H-indazol-4-yl]oxy}-1-methylethyl)-3,5-dimethyl-1H-pyrazole-4-sulfonamide], the IC50 stood at 51 nM.

Consider `Cc1nn(C2CCCC2)c(C)c1S(=O)(=O)N[C@@H](C)COc1cccc2c1cnn2-c1cccnc1` [Example 49, 1-Cyclopentyl-3,5-dimethyl-N-{(1S)-1-methyl-2-[(1-pyridin-3-yl-1H-indazol-4-yl)oxy]ethyl}-1H-pyrazole-4-sulfonamide], for which the IC50 amounted to 54 nM.

On to `Cc1cc(C)c(S(=O)(=O)N[C@@H](C)CNc2cccc3c2cnn3C2CCCC2)c(C)c1` [Example 50, N-{(1S)-2-[(1-Cyclopentyl-1H-indazol-4-yl)amino]-1-methylethyl}-2,4,6-trimethylbenzene sulfonamide], for which the IC50 came out at 7 nM.

For the molecule `Cc1ccc(-n2ncc3c(NC[C@H](C)NS(=O)(=O)c4ccccc4)cccc32)cc1` [Example 51], the IC50 is 20 nM.

Take `Cc1cc(C)c(S(=O)(=O)N[C@@H](C)CNc2cccc3c2c(C)nn3-c2ccc(F)cc2)c(C)c1` [Example 52, N-((1S)-2-{[1-(4-Fluoro-phenyl)-3-methyl-1H-indazol-4-yl]amino}-1-methylethyl)-2,4,6-trimethylbenzenesulfonamide]: the half-inhibitory concentration (IC50) worked out at 272 nM.

For `Cc1cc(C)c(S(=O)(=O)N[C@@H](C)CCc2cccc3c(-c4ccc(F)cc4)n[nH]c23)c(C)c1` [Example 53, N-{(1S)-3-[3-(4-Fluorophenyl)-1H-indazol-7-yl]-1-methylpropyl}-2,4,6-trimethylbenzenesulfonamide], the IC50 is 10 nM.

For `Cc1cc(C)c(S(=O)(=O)N[C@@H](C)CCc2cccc3c2cnn3-c2cncnc2)c(C)c1` [Example 54, 2,4,6-Trimethyl-N-[(1S)-1-methyl-3-(1-pyrimidin-5-yl-1H-indazol-4-yl)propyl]benzenesulfonamide], the IC50 was determined as 17 nM.

In the case of `Cc1cc(C)c(S(=O)(=O)NCC(C)(C)Nc2cccc3c2cnn3-c2ccc(F)cc2)c(C)c1` [Example 55, N-[2-[[1-(4-Fluorophenyl)indazol-4-yl]amino]-2-methylpropyl]-2,4,6-trimethyl-benzenesulfonamide], the IC50 is 24 nM.

The term IC50 denotes the concentration that gives 50% inhibition.
